# Source: patent publication US10738093B2, “Discovery of cationic nonribosomal peptides as Gram-negative antibiotics through global genome mining” (The Hong Kong University of Science and Technology, priority 2018, dated 2020)
# Positions of bridges follow the written chain, without caps; N, C: chain ends. Non-standard residues stand in square brackets, D forms with d. Residues, ends and D or L forms follow the SMILES beside them. ξ: configuration not given here. *: point of attachment. Hexanoyl(4ξ-Me) = CCC(C)CCC(=O)*; dOrn = NCCC[C@@H](N)C(=O)O; Orn = NCCC[C@H](N)C(=O)O
# What was measured:
# [1] = test system: Saccharomyces cerevisiae VL-48; assay: MIC, Saccharomyces cerevisiae; assay type: cell-based
# Protocol: (§1) Minimum inhibitory concentration (MIC) was determined by broth microdilution according to CLSI guidelines. The test medium for most species was Mueller-Hinton broth (MHB). Bacteria were grown overnight to early stationary phase and adjusted in MHB to 5.0×10^5 colony-forming units per mL (c.f.u./mL) in the wells of 96-well microtiter plates, mixed with varying concentrations of test compounds and incubated at 37° C. for 24 h. […] MHBs containing 10% fetal bovine serum (Gibco), 21 mM MgCl, or 1.0 mg/ml LPS (lipopolysaccharides from Escherichia coli O55:B5, Sigma-Aldrich) were used to test their inhibitory effects.
# E. coli Top10 [2] = assay type: cell-based, Escherichia coli; conditions: Top10
# Protocol: as §1
# [3] = test system: Colistin-resistant E. coli (E. coli ATCC 25922 carrying mcr-1); assay type: cell-based, Escherichia coli
# Protocol: as §1
# [4] = LPS binding by isothermal titration calorimetry; design: species or system Escherichia coli; conditions: ITC
# Protocol: Microcalorimetric experiments of peptide binding to LPS were performed on an MCS isothermal titration calorimeter (ITC) (Microcal, Northampton, Mass.) at 37° C. LPS was prepared as a 50 μM aqueous suspension in 20 mM HEPES (pH 7.0) buffer by suspension, sonication and temperature cycling between 5° C. and 70° C. This suspension was stored at 4° C. overnight prior to use. 100 μM peptide solutions (brevicidine and polymyxin B) were prepared in the same buffer and all solutions were degassed prior to use by stirring under vacuum for 5 min at 37° C. After thermal equilibration, 5 μL aliquots of the peptide solution were added every 3 min into the lipid-containing cell at 37° C. and stirred constantly. The change in heat during the titration steps was registered in real time and raw data were processed using the Origin® 7 software provided with the instrument. In control experiments, the corresponding peptide solution (or LPS solution) was injected into the buffer without LPS (or without peptide).
# [5] = test system: Escherichia coli ATCC 25922; assay: microbe, parasite or virus in culture; assay type: cell-based; conditions: ATCC 25922
# Protocol: as §1
# E. coli Top10 [6] = assay: Bacterial growth kinetics; assay type: cell-based, Escherichia coli; conditions: E. coli cells exposed to compound
# Protocol: A fresh single colony of E. coli Top10 was inoculated into MHB (5 mL) and grown with shaking at 225 rpm overnight. The bacteria were diluted to 1×10^5 c.f.u./mL in fresh MHB, grown […] to early log-phase (OD=0.15) and treated with the antibiotics of interest in the wells of a 96-well plate. Final antibiotic concentrations varied from 1×MIC to 8×MIC. The plate was then incubated at 30° C. overnight, with OD 600 measurements taken every 30 seconds.
# E. cloacae NRRL-B-425 = assay type: cell-based, Enterobacter cloacae; conditions: NRRL-B-425
# Protocol: as §1
# E. coli ATCC 25922 = assay: Atomic force microscopy of treated E. coli; assay type: cell-based, Escherichia coli; conditions: E. coli ATCC25922, 10×MIC
# Protocol: The samples were then centrifuged at 8000 g for 10 min at 4° C., and the pellet was washed twice in 100 lpL of apyrogenic water. The bacteria resuspended in 50 μL of apyrogenic water were applied to mica disks and dried overnight at 28° C. before imaging. Atomic force micrographs were recorded on a Veeco Mulitmode AFM with NanoScope III controller operating in contact mode. The data were analyzed with NanoScope Analysis software v.1.40 (Veeco, USA). Scans were acquired at 25° C. at the rates of 1.0 Hz and 256 samples per line resolution. Downstream image processing and analysis were performed using NanoScope software (Bruker). Height images were flattened to compensate for cell curvature, and topographical sections were used to generate two-dimensional reconstructions of surface texture.
# E. coli Top10 [7] = assay: Time-kill assay; assay type: cell-based, Escherichia coli
# Protocol: An overnight culture of E. coli Top10 or Pseudomonas aeruginosa PAO1 cells was diluted 1:10,000 in MHB and incubated at 37° C. with agitation at 180 rpm for 2 h (early exponential). The bacteria were then challenged with antibiotics at 10×MIC, brevicidine (20 μg/ml), laterocidine (20 μg/ml) or polymyxin B (10 μg/ml) at room temperature without shaking. An untreated sample of cells was used as a negative control. At intervals, 10 μL aliquots were removed, centrifuged at 10,000 g for 1 min and resuspended in 1.0 mL of sterile PBS. Tenfold-serially-diluted suspensions were plated on MHB agar plates and incubated at 37° C. overnight. Colonies were counted and the number of c.fu. per mL was calculated. For analysis of lysis, 300 μL of culture (OD600=1.0) were treated with 10×MIC of antibiotics for 24 h. Experiments were performed in triplicate.
# [8] = test system: K. pneumoniae NRRL-B-3521; assay type: cell-based, Klebsiella pneumoniae; conditions: NRRL-B-3521
# Protocol: as §1
# [9] = test system: Pseudomonas aeruginosa PAO1; assay type: cell-based; conditions: PAO1
# Protocol: as §1
# [10] = test system: Enterobacter cloacae NRRL-B-413; assay type: cell-based; conditions: NRRL-B-413
# Protocol: as §1
# Bacillus subtilis 168 = assay type: cell-based; conditions: 168
# Protocol: as §1
# [11] = test system: Klebsiella pneumoniae NRRL-B-408; assay type: cell-based; conditions: NRRL-B-408
# Protocol: as §1
# Acinetobacter baumannii = assay type: cell-based
# Protocol: as §1
# [12] = test system: Methicillin-resistant Staphylococcus aureus ATCC 43300; assay type: cell-based
# Protocol: as §1
# Candida albicans = assay type: cell-based
# Protocol: as §1
structure (smiles),measurement,setting,value
"CCC(C)CCC(=O)N[C@H](CC(N)=O)C(=O)N[C@H](Cc1ccc(O)cc1)C(=O)N[C@H](Cc1c[nH]c2ccccc12)C(=O)N[C@H](CCCN)C(=O)N[C@@H](CCCN)C(=O)NCC(=O)N[C@H](CCCN)C(=O)N[C@@H](Cc1c[nH]c2ccccc12)C(=O)N[C@@H]1C(=O)N[C@@H]([C@@H](C)CC)C(=O)NCC(=O)N[C@H](CO)C(=O)O[C@@H]1C (stereo partly drawn) [Compound 1, 4-Methyl-Hexanoyl-D-Asn-D-Tyr-D-Trp-D-Orn-Orn-Gly-D-Orn-Trp-Thr-Ile-Gly-Ser (cyclized via lactone formation between Thr and the C-terminus)] ({Hexanoyl(4ξ-Me)}-[dN][dY][dW][dOrn][Orn]G[dOrn]WTIG[dS]; ester 9-C)",MIC,[1]; Saccharomyces cerevisiae,>64 µg/mL
same,MIC Sc,"[1]; Table 2, Saccharomyces cerevisiae VL-48",ND (ND >64 μg/ml)
same,MIC,E. coli Top10 [2],2 µg/mL
same,MIC,[3],2 µg/mL
same,Kd,"[4]; 37° C., read-out: dissociation constant Kd for LPS",6.5 µM
same,binding to LPS,[4]; FIGS. 18a-18b,strong binding to LPS
same,MIC,[5],2 µg/mL
same,MIC Ec,[5],2 µg/mL
same,time of growth at a reduced rate before steady decrease in cell count,E. coli Top10 [6],30 min
same,MIC,E. cloacae NRRL-B-425,2 µg/mL
same,cell morphology by AFM,E. coli ATCC 25922,lost their regular rod-like shape and became lumpy and rugged
same,time of exposure to significant reduction of viable cells,E. coli Top10 [7]; 10 times the MIC,30 min
same,time of exposure to slightly reduced cell viability,E. coli Top10 [7]; 10 times the MIC,15 min
same,bactericidal against E. coli,"E. coli Top10 [7]; growth kinetics, time-kill assay and lysis assay",bactericidal
same,MIC,[8],4 µg/mL
same,MIC,[9],1 µg/mL
same,MIC Pa,[9],1 µg/mL
same,MIC,[10],2 µg/mL
same,MIC En,[10],2 µg/mL
same,MIC,Bacillus subtilis 168,32 µg/mL
same,MIC Bs,Bacillus subtilis 168,32 µg/mL
same,MIC,[11],2 µg/mL
same,MIC,Acinetobacter baumannii,16 µg/mL
same,MIC Ab,Acinetobacter baumannii,16 µg/mL
same,MIC,[12]; ATCC 43300,>64 µg/mL
same,MIC MRSA,"[12]; Table 2, Methicillin-resistant Staphylococcus aureus ATCC 43300",ND (ND >64 μg/ml)
same,MIC,Candida albicans,>64 µg/mL
same,MIC Ca,"Candida albicans; Table 2, Candida albicans",ND (ND >64 μg/ml)
